According to patent US8133917B2, “Pterostilbene as an agonist for the peroxisome proliferator-activated receptor alpha isoform” (The United States of America as represented by the …, priority 2004, dated 2012):

What was measured:
PPARα = biological target: T1, PPARα (Rattus norvegicus, UniProt P37230); test: Activation of PPARα in H4IIEC3 cells transfected with PPRE-AB-luciferase reporter gene; assay type: cell-based
T1 construct: endogenous in cells; host or cells: H4IIEC3 rat hepatoma cells
T1 sequence (P37230 1-468): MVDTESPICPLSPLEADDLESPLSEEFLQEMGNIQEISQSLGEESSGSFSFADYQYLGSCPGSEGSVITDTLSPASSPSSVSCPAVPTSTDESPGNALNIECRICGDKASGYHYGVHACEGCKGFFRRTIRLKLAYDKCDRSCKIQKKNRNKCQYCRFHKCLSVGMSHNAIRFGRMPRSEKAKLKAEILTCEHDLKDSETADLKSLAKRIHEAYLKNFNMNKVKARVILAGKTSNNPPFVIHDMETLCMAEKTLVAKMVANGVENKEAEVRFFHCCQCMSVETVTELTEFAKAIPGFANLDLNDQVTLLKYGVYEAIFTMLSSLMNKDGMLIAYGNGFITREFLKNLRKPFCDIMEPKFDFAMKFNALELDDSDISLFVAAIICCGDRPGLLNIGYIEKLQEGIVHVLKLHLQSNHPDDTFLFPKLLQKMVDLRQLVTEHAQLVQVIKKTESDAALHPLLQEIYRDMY

[1] = Hamster feeding study: plasma lipoprotein cholesterol, glucose, weights; assay type: in vivo, golden Syrian hamsters; details: hamsters; for plasma LDL cholesterol lower compared to control group / total plasma cholesterol lower compared to control group: 25 mg/kg diet
Protocol: Male golden Syrian hamsters (Charles River, Wilmington, Mass.), initial weight ranging from 34-41 g, were fed a powdered stock diet (Rodent Lab Chow 5001, Purina Mills, St. Louis, Mo.) for 7 days. The animals were placed in individual wire-bottom cages in a room kept at 20-22° C., 60% rh and 12 h light and dark cycle. Following the initial 7 day period, 8-10 animals were randomly assigned from a weight sorted list to each of five test diets (α-cellulose control and test substance). Food intake was measured twice each week and body weights were monitored once a week. After 21 days on the treatment diets, the animals were killed, blood was collected and analyzed for total cholesterol by the cholesterol oxidase method and lipoprotein cholesterol, by size exclusion chromatography, as previously described (German et al. 1996. Nutrition Res. 16: 1239-1249). All animal procedures were approved by the Animal Care and Use Committee, Western Regional Research Center, USDA, Albany, Calif. and conformed to the principles in “Guide for the Care and Use of Laboratory Animals” (Committee on Care and Use of Laboratory Animals 1985). Plasma blood glucose was determined using a blood glucose meter (Fast Glucose Meter-Precision Xtra, MediSense, Bedford, Mass., USA). Diets were prepared by dissolving powdered cholesterol into warmed butterfat, followed by the addition of corn and fish oil. The small amounts of test ingredients were dissolved in about 50 ml of ethanol and added to the stirring dry ingredients. The liquid fat was also added to the dry ingredients while stirring. Differences between treatments were tested by two-tailed t-test assuming equal variance, and were considered significant at p<0.05.

[2] = as above; assay type: in vivo, golden Syrian hamsters; details: hamsters; plant materials at about 10% of total diet; data not shown
H4IIEC3 cells = test: Toxicity to H4IIEC3 cells during the reporter assay; assay type: cell-based, rat; details: 100 and 300 μM

PPARα activation (luciferase activity) (PPARα; 100 μM, H4IIEC3 cells) | maximal luciferase response compared to control (PPARα; 100 μM, H4IIEC3 cells, 30 hr, n=4) | agonist / activator of PPARα (PPARα; H4IIEC3 cells) | Final Weights: Body wt (AVG) ([1]; 25 ppm in diet, 21 days) | Final Weights: Liver wt (AVG) ([1]; 25 ppm in diet, 21 days) | Liver/Body (AVG) ([1]; 25 ppm in diet, 21 days) | Structure (SMILES) | plasma LDL cholesterol lower compared to control group [1] | total plasma cholesterol lower compared to control group [1] | LDL/HDL (AVG) ([1]; 25 ppm in diet, 21 days) | Plasma Lipoprotein Cholesterol HDL (AVG) ([1]; 25 ppm in diet, 21 days) | Plasma Lipoprotein Cholesterol LDL (AVG) ([1]; 25 ppm in diet, 21 days) | Plasma Lipoprotein Cholesterol Total (AVG) ([1]; 25 ppm in diet, 21 days) | Plasma Lipoprotein Cholesterol VLDL (AVG) ([1]; 25 ppm in diet, 21 days) | Plasma glucose (AVG) ([1]; 25 ppm in diet, 21 days) | induction of luciferase activity (PPARα; all the concentrations tested (1, 10, 100, 300 μM)) | lowering of plasma cholesterol levels versus freeze-dried tomato and eggplant materials [2] | toxicity to H4IIEC3 cells (H4IIEC3 cells)
19460±1466 relative luciferase units | about 5 fold | acts as an agonist of PPARα |  |  |  | CC(C)(Oc1ccc(C2CC2(Cl)Cl)cc1)C(=O)O (stereo not drawn) [ciprofibrate] |  |  |  |  |  |  |  |  |  |  | 
 |  |  | 110.5 g | 7.9 g | 7.1 | COc1cc(/C=C/c2ccc(O)cc2)cc(OC)c1 [pterostilbene] | 29% | 18% | 1.8 | 137.0 mg/dL | 228.1 mg/dL | 447.8 mg/dL | 82.7 mg/dL | 185.1 |  |  | 
 |  |  |  |  |  | COc1ccc(C=Cc2cc(OC)cc(OC)c2)cc1 [resveratrol trimethylether] |  |  |  |  |  |  |  |  | only slightly |  | 
 |  |  | 109.5 g | 7.6 g |  | Oc1ccc(C=Cc2cc(O)cc(O)c2)cc1 [resveratrol] | 20% | 14% | 2.2 | 127.1 mg/dL | 257.4 mg/dL | 468.2 mg/dL | 83.6 mg/dL | 191 |  | more effective than the plant materials | toxic
